From DBAASP come the findings set out here.

Values after ≈ are worked out from the molar mass of the structure shown.

Common to all, as to experiment: ≥ marks a high value that may be exact or a test limit, other limits are often not marked, values filed in µg/mL are converted to µM
Test [1] concerns Bacillus subtilis CGMCC 1.3376.
In test [2] the test system is Escherichia coli CGMCC 1.8732.
The subject of test [3] is Klebsiella pneumoniae CGMCC 1.1736.
The test system of test [4] is Pseudomonas aeruginosa CGMCC 1.2421.
For test [5], the system named is Staphylococcus aureus CGMCC 1.8721.
The subject of test [6] is Staphylococcus epidermidis CGMCC 1.4260.
The test system of test [7] is Bacillus subtilis ATCC 23857.
Test [8] deals with Candida albicans NCPF 1467.
Test [9] has as its system Enterococcus faecalis NCTC 12697.
Test [10] relates to Escherichia coli ATCC 25922(GenR).
Test [11] deals with Escherichia coli ATCC 25922(RifR).
The test system of test [12] is Escherichia coli NCTC 10418.
For test [13], the system named is Klebsiella pneumoniae ATCC 700603.
The test system of test [14] is Pseudomonas aeruginosa ATCC 27853.
The subject of test [15] is Staphylococcus aureus ATCC 25923(GenR).
The test system of test [16] is Staphylococcus aureus ATCC 25923(RifR).
Test [17] relates to Staphylococcus aureus NCTC 10788.
The test system of test [18] is Staphylococcus aureus NCTC 12493.
Test [19] has as its system Bacillus magaterium AB90008.
The test system of test [20] is Enterobacter cloacae AB2010162.
The subject of test [21] is Escherichia coli DH5alpha.
For test [22], the system named is Klebsiella oxytoca AB2010143.
Test [23] has as its system Micrococcus luteus AB2010179.
Test [24] relates to Pseudomonas fluorescens.
The subject of test [25] is Pseudomonas putida.
Test [26] concerns Salmonella enterica AB2010185.
The test system of test [27] is Staphylococcus aureus AB94004.
Test [28] deals with Acinetobacter baumannii Q12-0809.
Test [29] relates to Acinetobacter baumannii Q12-0867.
The test system of test [30] is Acinetobacter baumannii Q13-0717.
Test [31] has as its system Campylobacter jejuni NCTC 11351.
In test [32] the test system is Campylobacter jejuni.
In test [33] the test system is Enterococcus faecalis JH-2-2.
The subject of test [34] is Escherichia coli K-12.
In test [35] the test system is Escherichia coli.
Test [36] has as its system Klebsiella pneumoniae NCTC 13442.
Test [37] concerns Klebsiella pneumoniae Q14-0095.
Test [38] has as its system Listeria monocytogenes NCTC 11994.
For test [39], the system named is Pseudomonas aeruginosa PAO1.
In test [40] the test system is Pseudomonas aeruginosa Q12-0581.
For test [41], the system named is Pseudomonas aeruginosa Q14-0208.
For test [42], the system named is Pseudomonas aeruginosa Q14-0890.
In test [43] the test system is Salmonella typhimurium SL1344.
Test [44] deals with Staphylococcus aureus ATCC 29213.
The test system of test [45] is Staphylococcus aureus MRSA-15.
For test [46], the system named is Staphylococcus aureus Q14-0320.
For test [47], the system named is Staphylococcus aureus RN4220.

Take `CC[C@H](C)[C@H](NC(=O)[C@H](C)N)C(=O)NCC(=O)N[C@@H](CO)C(=O)N[C@H](C(=O)N[C@@H](CC(C)C)C(=O)NCC(=O)N[C@@H](C)C(=O)N[C@@H](CC(C)C)C(=O)N[C@@H](C)C(=O)N[C@@H](CCCCN)C(=O)NCC(=O)N[C@@H](CC(C)C)C(=O)N1CCC[C@H]1C(=O)N[C@H](C(=O)N[C@@H](CC(C)C)C(=O)N[C@@H](CCCN=C(N)N)C(=O)N[C@@H](CO)C(=O)N[C@@H](Cc1c[nH]c2ccccc12)C(=O)N[C@H](C(=O)N[C@@H](CCCCN)C(=O)N[C@@H](CC(N)=O)C(=O)N[C@@H](CCCN=C(N)N)C(N)=O)[C@@H](C)CC)[C@@H](C)O)[C@@H](C)CC` [AIGSILGALAKGLPTLRSWIKNR]: the MIC (as a rule, the lowest concentration found to suppress growth) in [1] was 3.13 µM (≈ 7.62 µg/mL); in test [2], 12.5 µM (≈ 30.4 µg/mL); in test [3], 25 µM (≈ 60.9 µg/mL); in test [4] it was 12.5 µM (≈ 30.4 µg/mL); in test [5] it was 25 µM (≈ 60.9 µg/mL); in [6] it was 6.25 µM (≈ 15.2 µg/mL).

For `CC[C@H](C)[C@H](NC(=O)[C@@H]1CCCN1C(=O)[C@H](CC(C)C)NC(=O)[C@@H](N)Cc1ccccc1)C(=O)N[C@H](C(=O)N[C@@H](C)C(=O)N[C@@H](CCCCN)C(=O)N[C@@H](CC(C)C)C(=O)N[C@@H](CC(C)C)C(=O)N[C@@H](CO)C(=O)NCC(=O)N[C@@H](CC(C)C)C(=O)N[C@@H](CC(C)C)C(N)=O)C(C)C` [FLPIVAKLLSGLL], the MIC is 4 µM (≈ 5.53 µg/mL) in test [7]; 4 µM (≈ 5.53 µg/mL) in test [8]; 8 µM (≈ 11.1 µg/mL) in [9]; at least 32 µM in test [10]; at least 32 µM in test [11]; 16 µM (≈ 22.1 µg/mL) in [12]. Besides, the MIC in test [13] was above 128 µM; in test [14] it was 128 µM (≈ 177 µg/mL); in test [15] it was 8 µM (≈ 11.1 µg/mL); in [16] it was 16 µM (≈ 22.1 µg/mL); in test [17], 2 µM (≈ 2.77 µg/mL); in test [18], 4 µM (≈ 5.53 µg/mL).

Turning to `CC[C@H](C)[C@H](NC(=O)[C@H](CC(C)C)NC(=O)[C@H](CCCCN)NC(=O)[C@H](CC(C)C)NC(=O)[C@H](C)NC(=O)CNC(=O)[C@H](CCCCN)NC(=O)[C@H](C)NC(=O)[C@H](CC(C)C)NC(=O)[C@H](C)NC(=O)CNC(=O)[C@H](Cc1c[nH]c2ccccc12)NC(=O)[C@@H](N)Cc1ccccc1)C(=O)N1CCC[C@H]1C(=O)N[C@@H](CO)C(=O)N[C@@H](CC(C)C)C(=O)N[C@H](C(=O)N[C@@H](CO)C(=O)N[C@@H](CO)C(=O)N[C@@H](Cc1ccccc1)C(=O)N[C@H](C(=O)N[C@@H](CCCCN)C(=O)N[C@@H](CCCCN)C(=O)N[C@@H](CC(=O)O)C(N)=O)[C@@H](C)O)C(C)C` [FWGALAKGALKLIPSLVSSFTKKD], the MIC in [19] was 30 µM (≈ 77.3 µg/mL); in [20], at least 45 µM; in test [21], 15.8 µM (≈ 40.7 µg/mL); in test [22], at least 45 µM; in test [23], 15.8 µM (≈ 40.7 µg/mL); in [24], at least 40 µM. The values for the MIC in [25], in test [26] and in test [27] were 20 µM (≈ 51.5 µg/mL), 30 µM (≈ 77.3 µg/mL) and 5.6 µM (≈ 14.4 µg/mL), respectively.

On to `CC(C)[C@H](NC(=O)[C@@H](N)CCC(N)=O)C(=O)N[C@@H](CCCN=C(N)N)C(=O)N[C@@H](Cc1c[nH]c2ccccc12)C(=O)N[C@@H](Cc1c[nH]c2ccccc12)C(=O)NCC(=O)N[C@@H](CCCN=C(N)N)C(=O)N[C@@H](Cc1ccc(O)cc1)C(=O)N[C@@H](Cc1c[nH]c2ccccc12)C(=O)N[C@@H](CCCN=C(N)N)C(=O)N[C@@H](CCCN=C(N)N)C(=O)N[C@@H](CCCCN)C(=O)N[C@@H](Cc1c[nH]c2ccccc12)C(=O)N[C@@H](C)C(=O)N[C@H](C(=O)N[C@@H](CS)C(=O)N[C@@H](CCCN=C(N)N)C(=O)O)[C@@H](C)O` [QVRWWGRYWRRKWATCR], for which the MIC in test [28] is 13.4 µM (≈ 32 µg/mL); in [29], 6.68 µM (≈ 16 µg/mL); in test [30], 26.7 µM (≈ 64 µg/mL); in test [31] it was at least 53.4 µM; in test [32], at least 53.4 µM; in [33] it was at least 107 µM. Further, the MIC in test [34] is at least 107 µM; in [35], above 53.4 µM; in test [13], 26.7 µM (≈ 64 µg/mL); in test [36], at least 53.4 µM; in test [37], at least 53.4 µM; in [38], at least 53.4 µM. The MIC in test [14] was 53.4 µM (≈ 128 µg/mL); in test [39], 214 µM (≈ 512 µg/mL); in [40] it was at least 53.4 µM; in test [41] it was 26.7 µM (≈ 64 µg/mL); in test [42], 13.4 µM (≈ 32 µg/mL); in [43], at least 107 µM. The MIC in test [44] is 26.7 µM (≈ 64 µg/mL); in test [45], at least 104 µM; in test [18], 6.68 µM (≈ 16 µg/mL); in test [46], 26.7 µM (≈ 64 µg/mL); in test [47] it was at least 107 µM.
